According to patent US7598397B2, “Sulfonamide peri-substituted bicyclics for occlusive artery disease” (deCODE genetics ehf, priority 2004, dated 2009):

What follows are molecules tested against T1, prostanoid EP3 receptors (Homo sapiens, UniProt P43115) (assay: binding on prostanoid EP3 receptors (method of Abramovitz et al.)). Details: read-out: Activity (EP3 receptor binding, IC50 class).
T1 sequence (P43115 1-390): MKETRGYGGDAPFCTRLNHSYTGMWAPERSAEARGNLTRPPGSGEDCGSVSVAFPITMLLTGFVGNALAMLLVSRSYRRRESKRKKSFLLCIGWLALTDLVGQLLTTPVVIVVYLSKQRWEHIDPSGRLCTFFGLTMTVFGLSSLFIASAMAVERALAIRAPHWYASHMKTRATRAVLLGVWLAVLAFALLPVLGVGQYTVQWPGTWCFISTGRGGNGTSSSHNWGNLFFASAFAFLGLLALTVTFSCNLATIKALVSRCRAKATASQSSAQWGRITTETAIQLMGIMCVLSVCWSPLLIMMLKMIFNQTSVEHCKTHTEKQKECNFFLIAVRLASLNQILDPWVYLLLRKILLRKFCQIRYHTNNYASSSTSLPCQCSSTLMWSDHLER
Protocol: The compounds of the invention were assayed for their binding on prostanoid EP3 receptors according to the method of Abramovitz et al. [Bioch. Biophys.
For `Cc1cn(Cc2ccc(F)c(F)c2)c2c(/C=C/C(=O)NS(=O)(=O)c3cccs3)cccc12` [Compound P103], the IC50 was less than 1 µM.
With `O=C(C=Cc1cccc2c1N(Cc1ccc3ccccc3c1)C(=O)C2(O)C(F)(F)F)NS(=O)(=O)c1cccs1` (stereo not drawn) [Compound P104] the IC50 was less than 1 µM.
`CC1C(=O)N(Cc2ccc(Cl)cc2Cl)c2c(C=CC(=O)NS(=O)(=O)c3cc(Cl)c(Cl)s3)cccc21` (stereo not drawn) [Compound P107] gave an IC50 of less than 1 µM.
For `CC1(Br)C(=O)N(Cc2ccc3ccccc3c2)c2c(C=CC(=O)NS(=O)(=O)c3cccs3)cccc21` (stereo not drawn) [Compound P110], the IC50 was less than 1 µM.
In the case of `CC1(O)C(=O)N(Cc2ccc3ccccc3c2)c2c(C=CC(=O)NS(=O)(=O)c3cccs3)cccc21` (stereo not drawn) [Compound P111], the IC50 is reported as less than 1 µM.
`CC1C(=O)N(Cc2ccc3ccccc3c2)c2c(C=CC(=O)NS(=O)(=O)c3cc(Cl)c(Cl)s3)cccc21` (stereo not drawn) [Compound P112] was tested, and the IC50 was less than 1 µM.
For `O=C(C=Cc1cccc2c1N(Cc1ccc(Cl)cc1Cl)C(=O)C2=O)NS(=O)(=O)c1cc(Cl)c(Cl)s1` [Compound P113], the IC50 was less than 1 µM.
`O=C(C=Cc1cccc2c1N(Cc1ccc3ccccc3c1)C(=O)C21OCCO1)NS(=O)(=O)c1cc(Cl)c(Cl)s1` [Compound P114] showed an IC50 of less than 1 µM.
`O=C(C=Cc1cccc2c1N(Cc1ccc3ccccc3c1)C(=O)C2=O)NS(=O)(=O)c1cc(Cl)c(Cl)s1` [Compound P115] showed an IC50 of less than 1 µM.
With `Cc1cn(Cc2ccc(Cl)c(Cl)c2)c2c(/C=C/C(=O)NS(=O)(=O)c3cc(Cl)c(Cl)s3)cccc12` [Compound P118] the IC50 was less than 1 µM.
With `Cc1cn(Cc2cccc(C(F)(F)F)c2)c2c(/C=C/C(=O)NS(=O)(=O)c3cc(Cl)c(Cl)s3)cccc12` [Compound P119] the IC50 was less than 1 µM.
`Cc1cn(Cc2ccc(F)cc2)c2c(/C=C/C(=O)NS(=O)(=O)c3cc(Cl)c(Cl)s3)cccc12` [Compound P120] gave an IC50 of less than 1 µM.
`Cc1cn(Cc2ccccc2)c2c(/C=C/C(=O)NS(=O)(=O)c3cc(Cl)c(Cl)s3)cccc12` [Compound P122] showed an IC50 of less than 1 µM.
With `Cc1cn(Cc2ccccc2Cl)c2c(/C=C/C(=O)NS(=O)(=O)c3cc(Cl)c(Cl)s3)cccc12` [Compound P123] the IC50 was less than 1 µM.
For `Cc1cn(Cc2c(Cl)cccc2Cl)c2c(/C=C/C(=O)NS(=O)(=O)c3cc(Cl)c(Cl)s3)cccc12` [Compound P124], the IC50 was less than 1 µM.
In the case of `Cc1cn(Cc2ccccc2-c2ccccc2)c2c(/C=C/C(=O)NS(=O)(=O)c3cc(Cl)c(Cl)s3)cccc12` [Compound P125], the IC50 is reported as less than 1 µM.
`O=C(C=Cc1cccc2c1N(Cc1ccc(Cl)cc1Cl)C(=O)C2)NS(=O)(=O)c1cc(Cl)c(Cl)s1` [Compound P127] showed an IC50 of less than 1 µM.
With `CC(=O)CC1(O)C(=O)N(Cc2ccc(Cl)cc2Cl)c2c(C=CC(=O)NS(=O)(=O)c3cc(Cl)c(Cl)s3)cccc21` (stereo not drawn) [Compound P128] the IC50 was less than 1 µM.
`O=C(C=Cc1cccc2ccn(Cc3ccc(Cl)cc3Cl)c12)NS(=O)(=O)c1cc(Cl)c(Cl)s1` [Compound P129] was tested, and the IC50 was less than 1 µM.
`O=C(C=Cc1cccc2c1N(Cc1ccc(Cl)cc1Cl)C(=O)C2O)NS(=O)(=O)c1cc(Cl)c(Cl)s1` (stereo not drawn) [Compound P130] showed an IC50 of less than 1 µM.
`CC1(C)C(=O)N(Cc2ccc(Cl)cc2Cl)c2c(C=CC(=O)NS(=O)(=O)c3cc(Cl)c(Cl)s3)cccc21` [Compound P131] was tested, and the IC50 was less than 1 µM.
In the case of `CC1(O)C(=O)N(Cc2ccc(Cl)cc2Cl)c2c(C=CC(=O)NS(=O)(=O)c3cc(Cl)c(Cl)s3)cccc21` (stereo not drawn) [Compound P133], the IC50 is reported as less than 1 µM.
`O=C(C=Cc1cccc2c1N(Cc1ccc(Cl)cc1Cl)C(=O)C2(O)C[N+](=O)[O-])NS(=O)(=O)c1cc(Cl)c(Cl)s1` (stereo not drawn) [Compound P134] gave an IC50 of less than 1 µM.
In the case of `Cc1cn(Cc2ccc(F)c(F)c2)c2c(/C=C/C(=O)NS(=O)(=O)c3cc(Cl)c(Cl)s3)cccc12` [Compound P135], the IC50 is reported as less than 1 µM.
`Cc1cn(Cc2cc(F)cc(F)c2)c2c(/C=C/C(=O)NS(=O)(=O)c3cc(Cl)c(Cl)s3)cccc12` [Compound P136] was tested, and the IC50 was less than 1 µM.
Work on `Cc1cn(Cc2ccc(Cl)cc2)c2c(/C=C/C(=O)NS(=O)(=O)c3cc(Cl)c(Cl)s3)cccc12` [Compound P137] yielded an IC50 of less than 1 µM.
With `Cc1ccc(C)c(Cn2cc(C)c3cccc(/C=C/C(=O)NS(=O)(=O)c4cc(Cl)c(Cl)s4)c32)c1` [Compound P138] the IC50 was less than 1 µM.
`Cc1cn(Cc2ccc3c(c2)OCO3)c2c(/C=C/C(=O)NS(=O)(=O)c3cc(Cl)c(Cl)s3)cccc12` [Compound P139] showed an IC50 of less than 1 µM.
In the case of `Cc1cn(Cc2cccc(OC(F)(F)F)c2)c2c(/C=C/C(=O)NS(=O)(=O)c3cc(Cl)c(Cl)s3)cccc12` [Compound P140], the IC50 is reported as less than 1 µM.
In the case of `COc1cc(Cn2cc(C)c3cccc(/C=C/C(=O)NS(=O)(=O)c4cc(Cl)c(Cl)s4)c32)cc(OC)c1` [Compound P141], the IC50 is reported as less than 1 µM.
Work on `COc1cccc(Cn2cc(C)c3cccc(/C=C/C(=O)NS(=O)(=O)c4cc(Cl)c(Cl)s4)c32)c1` [Compound P142] yielded an IC50 of less than 1 µM.
`Cc1cn(Cc2ccc(OC(F)(F)F)cc2)c2c(/C=C/C(=O)NS(=O)(=O)c3cc(Cl)c(Cl)s3)cccc12` [Compound P143] gave an IC50 of less than 1 µM.
Work on `Cc1cn(CC2CCOCC2)c2c(/C=C/C(=O)NS(=O)(=O)c3cc(Cl)c(Cl)s3)cccc12` [Compound P144] yielded an IC50 of less than 1 µM.
Work on `Cc1cn(Cc2ccc(OC(F)F)cc2)c2c(/C=C/C(=O)NS(=O)(=O)c3cc(Cl)c(Cl)s3)cccc12` [Compound P145] yielded an IC50 of less than 1 µM.
Molecule `Cc1cn(Cc2ccc3ccccc3n2)c2c(/C=C/C(=O)NS(=O)(=O)c3cc(Cl)c(Cl)s3)cccc12` [Compound P146] has an IC50 of less than 1 µM.
Molecule `CN1C(=O)C(C)(Cc2ccc3ccccc3c2)c2c(C=CC(=O)NS(=O)(=O)c3cc(Cl)c(Cl)s3)cccc21` (stereo not drawn) [Compound P148] has an IC50 of less than 1 µM.
For `O=C(C=Cc1cccc2c1C(Cc1ccc3ccccc3c1)C(=O)N2)NS(=O)(=O)c1cc(Cl)c(Cl)s1` (stereo not drawn) [Compound P155], the IC50 was less than 1 µM.
Molecule `CN1C(=O)C(C)(Cc2ccc3ccccc3c2)c2c(CCC(=O)NS(=O)(=O)c3cc(Cl)c(Cl)s3)cccc21` (stereo not drawn) [Compound P156] has an IC50 of less than 1 µM.
`O=C(COc1cccc2c1C(F)(Cc1ccc3ccccc3c1)C(=O)N2)NS(=O)(=O)c1cc(Cl)c(Cl)s1` (stereo not drawn) [Compound P157] was tested, and the IC50 was less than 1 µM.
Work on `O=C(COc1cccc2c1C(Cc1ccc3ccccc3c1)C(=O)N2)NS(=O)(=O)c1cc(Cl)c(Cl)s1` (stereo not drawn) [Compound P158] yielded an IC50 of less than 1 µM.
For `CC1(F)C(=O)N(Cc2ccc3ccccc3c2)c2c(C=CC(=O)NS(=O)(=O)c3cccs3)cccc21` (stereo not drawn) [Compound P160], the IC50 was less than 1 µM.
In the case of `CC1(F)C(=O)N(Cc2ccc3ccccc3c2)c2c(C=CC(=O)NS(=O)(=O)c3cc(Cl)c(Cl)s3)cccc21` (stereo not drawn) [Compound P161], the IC50 is reported as less than 1 µM.
For `Cc1ccc(Sc2c[nH]c3cccc(OCC(=O)NS(=O)(=O)c4cc(Cl)c(Cl)s4)c23)c(C)c1` [Compound P165], the IC50 was less than 1 µM.
Work on `O=C(COc1cccc2[nH]cc(Sc3ccc4ccccc4c3)c12)NS(=O)(=O)c1cccs1` [Compound P166] yielded an IC50 of less than 1 µM.
`COc1ccc(S(=O)(=O)c2c[nH]c3cccc(OCC(=O)NS(=O)(=O)c4cc(Cl)c(Cl)s4)c23)cc1OC` [Compound P170] showed an IC50 of less than 1 µM.
For `Cc1ccc(S(=O)(=O)c2c[nH]c3cccc(OCC(=O)NS(=O)(=O)c4cc(Cl)c(Cl)s4)c23)c(C)c1` [Compound P172], the IC50 was less than 1 µM.
With `O=C(COc1cccc2[nH]cc(Sc3ccc(Cl)c(Cl)c3)c12)NS(=O)(=O)c1cc(Cl)c(Cl)s1` [Compound P178] the IC50 was less than 1 µM.
Molecule `O=C(C=Cc1cccc2c1N(Cc1ccc3ccccc3c1)C(=O)C2)NS(=O)(=O)c1cc(Cl)c(Cl)s1` [Compound P179] has an IC50 of less than 1 µM.
With `O=C(C=Cc1cccc2c1N(Cc1ccc3ccccc3c1)C(=O)C2(F)F)NS(=O)(=O)c1cc(Cl)c(Cl)s1` [Compound P180] the IC50 was less than 1 µM.
Work on `O=C(COc1cccc2[nH]cc(Sc3nc4ccccc4o3)c12)NS(=O)(=O)c1cc(Cl)c(Cl)s1` [Compound P181] yielded an IC50 of less than 1 µM.
Molecule `O=C(COc1cccc2[nH]cc(Sc3nc4ccccc4s3)c12)NS(=O)(=O)c1cc(Cl)c(Cl)s1` [Compound P182] has an IC50 of less than 1 µM.
Work on `O=C(COc1cccc2[nH]cc(Sc3ccc4ccccc4c3)c12)NS(=O)(=O)c1ccccc1Cl` [Compound P183] yielded an IC50 of less than 1 µM.
Molecule `O=C(COc1cccc2[nH]cc(Sc3ccc4ccccc4c3)c12)NS(=O)(=O)c1cccc(Cl)c1` [Compound P184] has an IC50 of less than 1 µM.
Work on `O=C(COc1cccc2[nH]cc(S(=O)(=O)c3ccc4ccccc4c3)c12)NS(=O)(=O)c1cccc(Cl)c1` [Compound P192] yielded an IC50 of less than 1 µM.
`COc1ccc(S(=O)(=O)NC(=O)COc2cccc3[nH]cc(S(=O)(=O)c4ccc5ccccc5c4)c23)cc1` [Compound P193] was tested, and the IC50 was less than 1 µM.
`Cn1c(Sc2c[nH]c3cccc(OCC(=O)NS(=O)(=O)c4cc(Cl)c(Cl)s4)c23)nc2ccccc21` [Compound P195] showed an IC50 of less than 1 µM.
With `COc1ccc(Sc2c[nH]c3cccc(OCC(=O)NS(=O)(=O)c4cc(Cl)c(Cl)s4)c23)cc1` [Compound P200] the IC50 was less than 1 µM.
Work on `O=C(COc1cccc2[nH]cc(S(=O)(=O)c3ccc(Cl)c(Cl)c3)c12)NS(=O)(=O)c1cc(Cl)c(Cl)s1` [Compound P204] yielded an IC50 of less than 1 µM.
`O=C(COc1cccc2[nH]cc(Sc3ccc(Cl)cc3Cl)c12)NS(=O)(=O)c1cc(Cl)c(Cl)s1` [Compound P205] showed an IC50 of less than 1 µM.
`O=C(COc1cccc2[nH]cc(Sc3ccc(F)c(F)c3)c12)NS(=O)(=O)c1cc(Cl)c(Cl)s1` [Compound P209] was tested, and the IC50 was less than 1 µM.
`COc1ccc(S(=O)(=O)c2c[nH]c3cccc(OCC(=O)NS(=O)(=O)c4cc(Cl)c(Cl)s4)c23)cc1` [Compound P210] was tested, and the IC50 was less than 1 µM.
With `O=C(COc1cccc2[nH]cc(Sc3ncccn3)c12)NS(=O)(=O)c1cc(Cl)c(Cl)s1` [Compound P211] the IC50 was less than 1 µM.
Molecule `COc1ccccc1Sc1c[nH]c2cccc(OCC(=O)NS(=O)(=O)c3cc(Cl)c(Cl)s3)c12` [Compound P212] has an IC50 of less than 1 µM.
